Measurements from US6075033A, “Anthranilic acid diamides derivatives, their preparation and pharmaceutical use as anti-gastrin agents” (Rotta Research Laboratorium S.p.A, priority 1996, dated 2000).

Key:
rat = assay: Anxiolytic activity, elevated plus-maze in the rat; format: in vivo
Excerpt: An important role has in fact recently been postulated for the central CCK-B receptor in anxiety. […] In this experimental model, a compound having anxiolytic activity produces a % increase in the time spent in the open limbs and a % increase in the number of entries to the open limbs.
The results obtained are shown in Table 4 below, in which the activities obtained with various doses of compound 1 administered by an intraperitoneal route (IP) in comparison with a group of animals treated with physiological solution by the same route.

[1] = target: T1, type B (CCK-B) gastrin or cholecystokinin receptors (Oryctolagus cuniculus, UniProt P46627); assay: Inhibition of the increase in cytosol calcium induced by gastrin in rabbit gastric mucous-membrane cells; format: cell-based; settings: 5×10-8 gastrin
T1 construct: rabbit gastric mucous-membrane cells were prepared by conventional techniques; endogenous in cells; host or cells: dispersed rabbit gastric mucous-membrane cells (collagenase and pronase)
T1 sequence (P46627 1-452): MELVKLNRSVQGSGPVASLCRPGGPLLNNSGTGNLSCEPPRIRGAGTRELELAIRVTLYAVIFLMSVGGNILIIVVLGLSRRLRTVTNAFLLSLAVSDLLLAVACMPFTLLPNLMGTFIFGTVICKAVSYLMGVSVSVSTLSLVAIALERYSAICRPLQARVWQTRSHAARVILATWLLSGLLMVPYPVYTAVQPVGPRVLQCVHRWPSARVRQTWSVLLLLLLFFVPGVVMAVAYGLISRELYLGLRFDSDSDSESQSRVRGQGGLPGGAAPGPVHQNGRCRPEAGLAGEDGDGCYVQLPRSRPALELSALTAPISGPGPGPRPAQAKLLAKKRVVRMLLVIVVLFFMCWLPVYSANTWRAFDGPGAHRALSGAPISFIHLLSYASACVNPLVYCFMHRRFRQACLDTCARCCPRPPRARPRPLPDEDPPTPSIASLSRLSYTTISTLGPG
Excerpt: The parietal cells of the gastric mucous membrane are responsible for the secretion of HCl. They have specific membrane receptors which can be activated by gastrin and which have been defined as type B (CCK-B) gastrin or cholecystokinin receptors.
Since it has been observed that the activation of CCK-B receptors by gastrin leads to an increase in the level of cytosol calcium ions, a technique of measurement of the increase in intracellular calcium induced by gastrin in the presence and in the absence of the compounds of the invention was used as an indication of the anti-gastrin activity of the compounds.
Suspensions (0.8×10^6 /ml) of rabbit gastric mucous-membrane cells were prepared by conventional techniques with the use of collagenase and pronase as digestive enzymes; the basal [Ca^2+ ]i values, that is, those reached […] stimulation of the cellular system, were estimated in accordance with Grynkiewicz et al [J. Biol. Chem. 260 (1985), 3440]. In the control samples, the cells were stimulated with […], whereas in the samples in which the effect of the compounds of the invention was evaluated, the cells were incubated with these compounds before stimulation with gastrin. The results are expressed as percentage increments of [Ca^2+ ]i with reference to the control value. The anti-gastrin activity of the compounds was expressed as the IC50 value, that is, the concentration (in micromoles/liter) at which the response to the stimulus induced by gastrin was reduced by 50%.

central CCK-B receptor [2] = assay: Inhibition of the binding of [3H]-[pBC264]CCK-7 to guinea-pig cortex membranes; settings: CCK-B binding (Table 2) compared with CCK-A gall bladder activity
Excerpt: (§1) [3-H][pBC264]CCK-7 was used to evaluate the ability of the compounds of the invention to interact with the central CCK-B receptor. This ligand has been show: to be selective for the CCK-B receptors since it has an affinity for the cortex (CCK-B) receptors 3 logarithmic orders of magnitude greater than for those of the pancreas (CCK-A) in the guinea pig (C. Durieux et al. Eur. J. Pharmacol. 168 (1989 page 269].
(§2) Cerebral cortexes of male albino guinea pigs were therefore used with the method given above, to obtain a membrane content corresponding to about 300 mcg of proteins/ml incubated with a final concentration of 0.2 nM of radioligand.
(§3) The results obtained for some of the compounds of the invention are shown in Table 2 in which the IC50, that is, the concentration (in micromoles/liter) of the antagonist which can displace 50% of the [3-H](pBC264]CCK-7 from the receptor, is given.

central CCK-B receptor [3] = target: T2, central CCK-B receptor (Cavia porcellus, UniProt H0VZC5); assay: as above; settings: for IC50: guinea-pig cortex membranes, 0.2 nM radioligand, read-out: IC50, displacement of [3H][pBC264]CCK-7 from the receptor; for times less active than the corresponding (R) derivative: on average, CCK-B binding
T2 construct: Cerebral cortexes of male albino guinea pigs were therefore used; from tissue; host or cells: cerebral cortex membranes of male albino guinea pigs
T2 sequence (H0VZC5 1-426): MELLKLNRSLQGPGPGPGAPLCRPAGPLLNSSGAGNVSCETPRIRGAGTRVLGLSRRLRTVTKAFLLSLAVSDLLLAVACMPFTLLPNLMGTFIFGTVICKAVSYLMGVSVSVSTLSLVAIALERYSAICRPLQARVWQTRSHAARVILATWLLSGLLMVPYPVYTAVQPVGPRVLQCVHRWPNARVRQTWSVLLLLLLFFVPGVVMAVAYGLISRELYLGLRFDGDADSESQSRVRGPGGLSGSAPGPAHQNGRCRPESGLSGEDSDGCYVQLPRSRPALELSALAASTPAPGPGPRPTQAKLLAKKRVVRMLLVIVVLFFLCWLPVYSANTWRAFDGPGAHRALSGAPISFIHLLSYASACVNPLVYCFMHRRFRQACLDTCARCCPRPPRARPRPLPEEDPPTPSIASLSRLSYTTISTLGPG
Excerpt: as §1, §2, §3

## Cc1cc(C)c(NC(=O)C[C@H](CC(=O)O)c2cccc3ccccc23)c(C(=O)N2CCC3(CCCC3)CC2)c1 [Compound 1]
rat; 0.03 mg/kg I.P.
  % effect Vs controls (entries open limbs/total entries): 32.6%
  % effect Vs controls (time open limbs/total time): 26.4%
  Entries open limbs/total entries (%): 42.2%
  Time open limbs/total time (%): 27.5%
rat; 0.3 mg/kg I.P.
  % effect Vs controls (entries open limbs/total entries): 31.5%
  % effect Vs controls (time open limbs/total time): 50.9%
  % of time spent in the open limbs vs control group (in words): this increase is significant
  Entries open limbs/total entries (%): 41.8%
rat; 0.3 mg/kg I.P., (*) Duncan test p < 0.05 vs control group
  Time open limbs/total time (%): 32.8%
rat; 3.0 mg/kg I.P.
  % effect Vs controls (entries open limbs/total entries): 26.3%
  % effect Vs controls (time open limbs/total time): 38.5%
  Entries open limbs/total entries (%): 40.2%
  Time open limbs/total time (%): 30.1%
rat; dose range 0.03-3 mg/kg I.P.
  % of entries to the open limbs over total entries vs controls (in words): increases the % of entries to the open limbs
rat; plus maze, I.P.
  anxiolytic activity (in words): shows anxiolytic activity
[1]
  IC50, inhibition of gastrin-induced increase in cytosol calcium: 4.3 nM
Central CCK-B receptor [2]
  affinity for the gastrin receptor (CCK-B) relative to the cholecystokinin receptor (CCK-A): at least 1000 times
Central CCK-B receptor [3]
  IC50: 5.1 nM

## Cc1cc(Cl)c(NC(=O)C[C@H](CC(=O)O)c2cccc3ccccc23)c(C(=O)N2CCC3(CCCC3)CC2)c1 [Compound 2]
[1]
  IC50, inhibition of gastrin-induced increase in cytosol calcium: 3.5 nM
Central CCK-B receptor [3]
  IC50: 2.5 nM

## Cc1cc(C)c(NC(=O)C[C@@H](CC(=O)O)c2cccc3ccccc23)c(C(=O)N2CCC3(CCCC3)CC2)c1 [Compound 4]
[1]
  IC50, inhibition of gastrin-induced increase in cytosol calcium: 68.8 nM
Central CCK-B receptor [3]
  IC50: 54.7 nM
  times less active than the corresponding (R) derivative: ~10 times

## Cc1cc(Cl)c(NC(=O)C[C@@H](CC(=O)O)c2cccc3ccccc23)c(C(=O)N2CCC3(CCCC3)CC2)c1 [Compound 5]
[1]
  IC50, inhibition of gastrin-induced increase in cytosol calcium: 82 nM
Central CCK-B receptor [3]
  IC50: 22.9 nM
  times less active than the corresponding (R) derivative: ~10 times
